Assay results as given in publication PMC4287489, “Ribose 5-Phosphate Isomerase B Knockdown Compromises Trypanosoma brucei Bloodstream Form Infectivity” (PLoS Neglected Tropical Diseases, 2015).

Legend:
[1] = molecular target: T1, Trypanosoma cruzi ribose 5-phosphate isomerase B (TcRpiB) (Trypanosoma cruzi, UniProt Q4DBP9); assay: enzyme kinetics (Km), direct spectrophotometric assay at […] nm; format: biochemical
T1 construct: gene Tc00.1047053508601.119; recombinant N-terminal 6xHis-tagged TcRpiB (CL Brener Non-Esmeraldo-like) expressed in E. coli; 159 residues per monomer
T1 sequence (Q4DBP9 entry or part of it): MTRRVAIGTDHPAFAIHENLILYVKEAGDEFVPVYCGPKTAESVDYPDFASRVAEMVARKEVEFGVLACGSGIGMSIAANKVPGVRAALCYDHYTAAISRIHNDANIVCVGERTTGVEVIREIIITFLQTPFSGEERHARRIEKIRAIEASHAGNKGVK

[2] = molecular target: T1, Trypanosoma cruzi ribose 5-phosphate isomerase B (TcRpiB); assay: spectrophotometric isomerase assay; Ki from Kmapp/Vmax plot; IC50 […]; format: biochemical
[3] = molecular target: T2, Trypanosoma brucei ribose 5-phosphate isomerase B (TbRpiB) (Trypanosoma brucei, UniProt Q384D1); assay: spectrophotometric isomerase assay ([…] nm) and cysteine-carbazole assay; Ki from Kmapp/Vmax plot; IC50 […]; format: biochemical
T2 construct: gene Tb11.01.0700; recombinant N-terminal 6xHis-tagged TbRpiB expressed in E. coli; 155 residues per monomer
T2 sequence (Q384D1 entry or part of it): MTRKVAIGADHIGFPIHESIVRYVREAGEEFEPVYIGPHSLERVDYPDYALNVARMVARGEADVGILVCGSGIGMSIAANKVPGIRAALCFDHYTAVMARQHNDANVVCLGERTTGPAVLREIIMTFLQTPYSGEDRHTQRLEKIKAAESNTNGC

[4] = tested on: O=C(CO)[C@H](O)[C@H](O)COP(=O)(O)O; assay: purified protein

In the case of O=P(O)(O)OC[C@H]1OC(O)[C@H](O)[C@@H]1O (stereo partly drawn) [R5P, D-ribose 5-phosphate], the “enzyme kinetics (Km), direct spectrophotometric assay at 290 nm” value [1] is reported as “enzymes have in vitro ribose 5-phosphate isomerase activity, as these proteins can use both R5P and Ru5P as substrates”.
O=C(NO)[C@H](O)[C@H](O)COP(=O)(O)O [4-PEH, 4-deoxy-4-phospho-D-erythronohydroxamic acid] showed a Ki [2] of 1.6 mM and a Ki [3] of 2.2 mM.
With “Trypanosoma brucei ribose 5-phosphate isomerase B (TbRpiB) (Trypanosoma brucei brucei TREU927)” the Km [4] was 2390 ± 940 µM, the kcat [4] was 39.4 ± 5.32 s⁻¹ and the kcat/Km [4] was 16400 M⁻¹ s⁻¹.
